# Experimental data: PMC2804746 (Biochemistry, 2008)
# Columns and labels:
# [1] = target: T1, taTrxR (Ta0984) (Thermoplasma acidophilum, UniProt Q9HJI4); test: X-ray crystal structure, […] Å; type: binding; conditions: one FAD per monomer, co-purified; crystals at pH 5.5, room temperature
# T1 sequence (Q9HJI4 1-319): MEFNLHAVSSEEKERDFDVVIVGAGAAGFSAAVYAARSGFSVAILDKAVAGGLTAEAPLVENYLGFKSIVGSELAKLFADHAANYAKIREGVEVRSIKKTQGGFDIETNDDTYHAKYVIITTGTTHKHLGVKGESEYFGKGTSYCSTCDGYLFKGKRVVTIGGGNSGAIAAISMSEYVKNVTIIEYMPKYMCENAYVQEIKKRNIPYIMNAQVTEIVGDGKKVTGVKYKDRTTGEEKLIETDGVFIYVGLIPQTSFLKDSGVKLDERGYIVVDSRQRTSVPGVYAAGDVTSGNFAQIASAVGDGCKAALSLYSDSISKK
# [2] = target: ecTrxR (Escherichia coli, UniProt P0A9P4); test: anaerobic titration, reduction of bound FAD by visible spectra; type: biochemical; conditions: 50 mM TRIS, pH 7.5, 150 mM NaCl, 25 °C
# Sequence of ecTrxR (P0A9P4 2-321): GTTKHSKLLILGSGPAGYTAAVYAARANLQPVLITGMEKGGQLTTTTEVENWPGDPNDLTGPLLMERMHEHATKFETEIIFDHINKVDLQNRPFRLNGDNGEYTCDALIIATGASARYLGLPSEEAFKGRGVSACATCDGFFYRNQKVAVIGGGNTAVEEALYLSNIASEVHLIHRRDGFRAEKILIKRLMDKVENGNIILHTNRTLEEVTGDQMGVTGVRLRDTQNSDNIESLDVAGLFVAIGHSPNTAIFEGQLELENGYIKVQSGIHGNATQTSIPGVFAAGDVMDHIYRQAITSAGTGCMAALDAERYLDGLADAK
SMILES,"X-ray crystal structure, 2.35 Å; visible absorption spectrum [1]","anaerobic titration, reduction of bound FAD by visible spectra [2]"
Cc1cc2nc3c(=O)[nH]c(=O)nc-3n(C[C@H](O)[C@H](O)[C@H](O)COP(=O)(O)OP(=O)(O)OC[C@H]3O[C@@H](n4cnc5c(N)ncnc54)[C@H](O)[C@@H]3O)c2cc1C [FAD],The taTrxR structure has one FAD molecule bound in a similar conformation as the ecTrxR structure,–
NC(=O)C1=CN([C@@H]2O[C@H](COP(=O)(O)OP(=O)(O)OC[C@H]3O[C@@H](n4cnc5c(N)ncnc54)[C@H](O)[C@@H]3O)[C@@H](O)[C@H]2O)C=CC1 [NADH],–,NADH does reduce the flavin to some extent in this protein
NC(=O)C1=CN([C@@H]2O[C@H](COP(=O)(O)OP(=O)(O)OC[C@H]3O[C@@H](n4cnc5c(N)ncnc54)[C@H](OP(=O)(O)O)[C@@H]3O)[C@@H](O)[C@H]2O)C=CC1 [NADPH],–,titration of ecTrxR with NADPH results in a rapid reduction of the bound FAD
